What was measured:
Type in all cases: in vivo
[1] = system: Diabrotica balteata (Corn Root Worm); experiment: Diabrotica balteata (corn root worm), sprayed maize sprouts, L2 larvae; details: 96 h, application rate of 200 ppm, 4 days after infestation, read-out: control in at least one of the two categories (mortality or growth inhibition)
Method: Maize sprouts placed onto an agar layer in 24-well microtiter plates were treated with aqueous test solutions prepared from 10′000 ppm DMSO stock solutions by spraying. After drying, the plates were infested with L2 larvae (6 to 10 per well). The samples were assessed for mortality and growth inhibition in comparison to untreated samples 4 days after infestation.

[2] = system: Tetranychus urticae (Two-Spotted Spider Mite); experiment: Tetranychus urticae feeding/contact activity, bean leaf discs; details: foliar, 192 h
Method: Bean leaf discs on agar in 24-well microtiter plates were sprayed with aqueous test solutions prepared from 10′000 ppm DMSO stock solutions. After drying the leaf discs were infested with a mite population of mixed ages. The samples were assessed for mortality on mixed population (mobile stages) 8 days after infestation.

[3] = system: Spodoptera littoralis (Egyptian Cotton Leaf Worm); experiment: Spodoptera littoralis (Egyptian cotton leaf worm), cotton leaf discs, L1 larvae; details: foliar, 72 h, application rate of 200 ppm, 3 days after infestation, read-out: control in at least one of the three categories (mortality, anti-feedant effect, or growth inhibition)
Method: Cotton leaf discs were placed onto agar in 24-well microtiter plates and sprayed with aqueous test solutions prepared from 10′000 ppm DMSO stock solutions. After drying the leaf discs were infested with five L1 larvae. The samples were assessed for mortality, anti-feeding effect, and growth inhibition in comparison to untreated samples 3 days after infestation. Control of Spodoptera littoralis by a test sample is given when at least one of the categories mortality, anti-feedant effect, and growth inhibition is higher than the untreated sample.

[4] = system: Chilo suppressalis (Striped Rice Stemborer); experiment: Chilo suppressalis (striped rice stemborer), artificial diet in 24-well plates, L2 larvae; details: 144 h, application rate of 200 ppm, 6 days after infestation, read-out: control in at least one of the three categories (mortality, anti-feedant effect, or growth inhibition)
Method: 24-well microtiter plates with artificial diet were treated with aqueous test solutions prepared from 10′000 ppm DMSO stock solutions by pipetting. After drying, the plates were infested with L2 larvae (6-8 per well). The samples were assessed for mortality, anti-feeding effect, and growth inhibition in comparison to untreated samples 6 days after infestation. Control of Chilo suppressalis by a test sample is given when at least one of the categories mortality, anti-feedant effect, and growth inhibition is higher than the untreated sample.

[5] = system: Myzus persicae (Green Peach Aphid); experiment: Myzus persicae feeding/contact activity, sunflower leaf discs; details: foliar, 144 h, application rate of 200 ppm, 6 days after infestation
Method: (§1) Sunflower leaf discs were placed onto agar in a 24-well microtiter plate and sprayed with aqueous test solutions prepared from 10′000 ppm DMSO stock solutions. After drying, the leaf discs were infested with an aphid population of mixed ages. The samples were assessed for mortality 6 days after infestation.

[6] = system: Myzus persicae (Green Peach Aphid); experiment: Myzus persicae intrinsic activity, sucrose solution under Parafilm; details: 120 h, application rate of 12.5 ppm, 5 days after infestation, read-out: control (assessed for mortality)
Method: Test compounds prepared from 10′000 ppm DMSO stock solutions were applied by pipette into 24-well microtiter plates and mixed with sucrose solution. The plates were closed with a stretched Parafilm. A plastic stencil with 24 holes was placed onto the plate and infested pea seedlings were placed directly on the Parafilm. The infested plate was closed with a gel blotting paper and another plastic stencil and then turned upside down. The samples were assessed for mortality 5 days after infestation.

[7] = system: Myzus persicae (Green Peach Aphid); experiment: Myzus persicae systemic activity, roots of pea seedlings in test solution; details: 144 h, test rate of 24 ppm, 6 days after placing seedlings into test solutions
Method: Roots of pea seedlings infested with an aphid population of mixed ages were placed directly into aqueous test solutions prepared from 10′000 DMSO stock solutions. The samples were assessed for mortality 6 days after placing seedlings into test solutions.

[8] = system: Myzus persicae (Green Peach Aphid); experiment: Myzus persicae feeding/contact activity, eggplant leaf discs; details: foliar, 144 h, application rate of 200 ppm, 6 days after infestation, read-out: growth inhibition
Method: as §1, with “Eggplant” for “Sunflower”

[9] = system: Bemisia tabaci (Cotton White Fly); experiment: Bemisia tabaci feeding/contact activity, cotton leaf discs, adult white flies; details: foliar, 144 h, application rate of 200 ppm, 6 days after incubation
Method: Cotton leaf discs were placed on agar in 24-well microtiter plates and sprayed with aqueous test solutions prepared from 10′000 ppm DMSO stock solutions. After drying the leaf discs were infested with adult white flies. The samples were checked for mortality 6 days after incubation.

[10] = system: Plutella xylostella (Diamond Back Moth); experiment: Plutella xylostella (diamond back moth), artificial diet, eggs; details: 192 h, application rate of 200 ppm, 8 days after infestation, read-out: effect in at least one of the two categories (mortality or growth inhibition)
Method: 24-well microtiter plates with artificial diet were treated with aqueous test solutions prepared from 10′000 ppm DMSO stock solutions by pipetting. After drying, Plutella eggs were pipetted through a plastic stencil onto a gel blotting paper and the plate was closed with it. The samples were assessed for mortality and growth inhibition in comparison to untreated samples 8 days after infestation.

SMILES | percent control (mortality or growth inhibition) at 200 ppm [1] [%] | percent control (mortality, anti-feedant effect or growth inhibition) at 200 ppm [4] [%] | mortality at 24 ppm [7] [%] | mortality at 200 ppm [8] [%] | further results
NC(=O)[C@H]1[C@@H]2CCCO[C@@H]21 (relative stereo) [Compound P1, rel-(1R,6R,7R)-2-oxabicyclo[4.1.0]heptane-7-carboxamide] | ≥ 80 | – | – | – | mortality at 200 ppm [2]: ≥ 80%
O=C(Nc1cccn(-c2ccccc2)c1=O)[C@H]1[C@@H]2CCCO[C@@H]21 (relative stereo) [Compound P4, rel-(1S,6S,7S)-N-(2-oxo-1-phenyl-3-pyridyl)-2-oxabicyclo[4.1.0]heptane-7-carboxamide] | – | – | – | – | percent control (mortality, anti-feedant effect or growth inhibition) at 200 ppm [3]: ≥ 80%
NC(=O)[C@H]1[C@@H]2OCCO[C@@H]21 [Compound P5, (1α,6α,7α)-2,5-dioxabicyclo[4.1.0]heptane-7-carboxamide] | ≥ 80 | ≥ 80 | ≥ 80 | ≥ 80 | mortality at 200 ppm [5]: ≥ 80%; mortality at 12.5 ppm [6]: ≥ 80%
CNC(=O)c1ccccc1NC(=O)[C@H]1[C@@H]2OCCO[C@@H]21 [Compound P6] | – | – | ≥ 80 | – | mortality at 12.5 ppm [6]: ≥ 80%
O=C(O)[C@H]1[C@@H]2OCCO[C@@H]21 [Compound P7, (1α,6α,7α)-2,5-dioxabicyclo[4.1.0]heptane-7-carboxylic acid] | – | ≥ 80 | ≥ 80 | ≥ 80 | mortality at 12.5 ppm [6]: ≥ 80%; mortality at 200 ppm [9]: ≥ 80%
CCOC(=O)[C@H]1[C@@H]2OCCO[C@@H]21 [Compound P8, Ethyl(1α,6α,7α)-2,5-dioxabicyclo[4.1.0]heptane-7-carboxylate] | ≥ 80 | ≥ 80 | ≥ 80 | ≥ 80 | mortality at 12.5 ppm [6]: ≥ 80%; percent effect (mortality or growth inhibition) at 200 ppm [10]: ≥ 80%; mortality at 200 ppm [9]: ≥ 80%
CN(C)C(=O)[C@H]1[C@@H]2OCCO[C@@H]21 [Compound P10, (1α,6α,7α)-N,N-dimethyl-2,5-dioxabicyclo[4.1.0]heptane-7-carboxamide] | – | ≥ 80 | – | – | –
O=C(NOCc1ccccc1)[C@H]1[C@@H]2OCCO[C@@H]21 [Compound P13, (1α,6α,7α)-N-benzyloxy-2,5-dioxabicyclo[4.1.0]heptane-7-carboxamide] | – | – | ≥ 80 | ≥ 80 | mortality at 200 ppm [9]: ≥ 80%
O=C(NOCc1c(F)cccc1F)[C@H]1[C@@H]2OCCO[C@@H]21 [Compound P14, (1α,6α,7α)-N-[(2,6-difluorophenyl)methoxy]-2,5-dioxabicyclo[4.1.0]heptane-7-carboxamide] | – | ≥ 80 | ≥ 80 | ≥ 80 | –
CCONC(=O)[C@H]1[C@@H]2OCCO[C@@H]21 [Compound P15, (1α,6α,7α)-N-ethoxy-2,5-dioxabicyclo[4.1.0]heptane-7-carboxamide] | – | ≥ 80 | ≥ 80 | ≥ 80 | mortality at 12.5 ppm [6]: ≥ 80%; percent effect (mortality or growth inhibition) at 200 ppm [10]: ≥ 80%
Cc1cccc(NC(=O)[C@H]2[C@@H]3OCCO[C@@H]32)c1 [Compound P16, (1α,6α,7α)-N-(m-tolyl)-2,5-dioxabicyclo[4.1.0]heptane-7-carboxamide] | – | – | – | ≥ 80 | –
Cc1ccc(NC(=O)[C@H]2[C@@H]3OCCO[C@@H]32)c(F)c1 [Compound P17, (1α,6α,7α)-N-(2-fluoro-4-methyl-phenyl)-2,5-dioxabicyclo[4.1.0]heptane-7-carboxamide] | ≥ 80 | – | – | – | –
Cc1ccc(NC(=O)[C@H]2[C@@H]3OCCO[C@@H]32)cc1 [Compound P18, (1α,6α,7α)-N-(p-tolyl)-2,5-dioxabicyclo[4.1.0]heptane-7-carboxamide] | ≥ 80 | – | ≥ 80 | – | –
O=C(NCc1cc(Cl)ccc1Cl)[C@H]1[C@@H]2OCCO[C@@H]21 [Compound P19, (1α,6α,7α)-N-[(2,5-dichlorophenyl)methyl]-2,5-dioxabicyclo[4.1.0]heptane-7-carboxamide] | ≥ 80 | – | – | – | –
O=C(NCC1CC1)[C@H]1[C@@H]2OCCO[C@@H]21 [Compound P28, (1α,6α,7α)-N-(cyclopropylmethyl)-2,5-dioxabicyclo[4.1.0]heptane-7-carboxamide] | – | – | – | – | percent control (mortality, anti-feedant effect or growth inhibition) at 200 ppm [3]: ≥ 80%
Cc1ccccc1NC(=O)[C@H]1[C@@H]2OCCO[C@@H]21 [Compound P29, (1α,6α,7α)-N-(o-tolyl)-2,5-dioxabicyclo[4.1.0]heptane-7-carboxamide] | ≥ 80 | – | ≥ 80 | – | –
Cn1ccc(NC(=O)[C@H]2[C@@H]3OCCO[C@@H]32)n1 [Compound P30, (1α,6α,7α)-N-(1-methylpyrazol-3-yl)-2,5-dioxabicyclo[4.1.0]heptane-7-carboxamide] | ≥ 80 | – | ≥ 80 | – | –
O=C(NOC1CCC1)[C@H]1[C@@H]2OCCO[C@@H]21 [Compound P31, (1α,6α,7α)-N-(cyclobutoxy)-2,5-dioxabicyclo[4.1.0]heptane-7-carboxamide] | ≥ 80 | ≥ 80 | ≥ 80 | ≥ 80 | –
O=C(Nc1cc2ccccn2n1)[C@H]1[C@@H]2OCCO[C@@H]21 [Compound P33] | ≥ 80 | – | – | – | –
Cn1cc(NC(=O)[C@H]2[C@@H]3OCCO[C@@H]32)cn1 [Compound P36, (1α,6α,7α)-N-(1-methylpyrazol-4-yl)-2,5-dioxabicyclo[4.1.0]heptane-7-carboxamide] | ≥ 80 | – | ≥ 80 | ≥ 80 | –
O=C(NC1CCOCC1)[C@H]1[C@@H]2OCCO[C@@H]21 [Compound P37, (1α,6α,7α)-N-tetrahydropyran-4-yl-2,5-dioxabicyclo[4.1.0]heptane-7-carboxamide] | – | – | ≥ 80 | – | –
Cn1nccc1NC(=O)[C@H]1[C@@H]2OCCO[C@@H]21 [Compound P38, (1α,6α,7α)-N-(2-methylpyrazol-3-yl)-2,5-dioxabicyclo[4.1.0]heptane-7-carboxamide] | ≥ 80 | – | – | – | –
CCC(NC(=O)[C@H]1[C@@H]2OCCO[C@@H]21)c1ccc(Cl)cc1 (stereo partly drawn) [Compound P40, (1α,6α,7α)-N-[1-(4-chlorophenyl)propyl]-2,5-dioxabicyclo[4.1.0]heptane-7-carboxamide] | ≥ 80 | – | – | – | –
O=C(NCc1ccccc1)[C@H]1[C@@H]2OCCO[C@@H]21 [Compound P41, (1α,6α,7α)-N-benzyl-2,5-dioxabicyclo[4.1.0]heptane-7-carboxamide] | – | ≥ 80 | – | – | –

Reference: patent US20260271927A1, “PESTICIDALLY ACTIVE BICYCLIC COMPOUNDS” (SYNGENTA CROP PROTECTION AG, priority 2023, published 2026)
